Laboratory results as given in ChEMBL document CHEMBL3727342, “Compounds and methods for kinase modulation, and indications therefor” (2012).
pIC50: −log10 of the molar value.

Legend:
[1] = target: Vascular endothelial growth factor receptor 2 (Homo sapiens, UniProt P35968); assay: Inhibition of KDR (unknown origin) by FRET assay
[2] = target: Mast/stem cell growth factor receptor Kit (Homo sapiens, UniProt P10721); assay: Inhibition of Kit (unknown origin) expressed in Escherichia coli
[3] = target: Tyrosine-protein kinase BTK (Homo sapiens, UniProt Q06187); assay: Inhibition of Btk (unknown origin) by FRET assay
[4] = target: RAF proto-oncogene serine/threonine-protein kinase (Homo sapiens, UniProt P04049); assay: Inhibition of human C-raf using biotin-MEK1 substrate incubated for 1 hr
[5] = target: Proto-oncogene tyrosine-protein kinase Src (Homo sapiens, UniProt P12931); assay: Inhibition of Src (unknown origin) expressed in Escherichia coli using biotin-(E4Y)3 substrate
[6] = target: Serine/threonine-protein kinase B-raf (Homo sapiens, UniProt P15056); assay: Inhibition of N-terminal GST-tagged human recombinant B-Raf (416 to end residues) using biotin-MEK1 substrate incubated for 1 hr
Sequence of Serine/threonine-protein kinase B-raf (P15056 whole entry): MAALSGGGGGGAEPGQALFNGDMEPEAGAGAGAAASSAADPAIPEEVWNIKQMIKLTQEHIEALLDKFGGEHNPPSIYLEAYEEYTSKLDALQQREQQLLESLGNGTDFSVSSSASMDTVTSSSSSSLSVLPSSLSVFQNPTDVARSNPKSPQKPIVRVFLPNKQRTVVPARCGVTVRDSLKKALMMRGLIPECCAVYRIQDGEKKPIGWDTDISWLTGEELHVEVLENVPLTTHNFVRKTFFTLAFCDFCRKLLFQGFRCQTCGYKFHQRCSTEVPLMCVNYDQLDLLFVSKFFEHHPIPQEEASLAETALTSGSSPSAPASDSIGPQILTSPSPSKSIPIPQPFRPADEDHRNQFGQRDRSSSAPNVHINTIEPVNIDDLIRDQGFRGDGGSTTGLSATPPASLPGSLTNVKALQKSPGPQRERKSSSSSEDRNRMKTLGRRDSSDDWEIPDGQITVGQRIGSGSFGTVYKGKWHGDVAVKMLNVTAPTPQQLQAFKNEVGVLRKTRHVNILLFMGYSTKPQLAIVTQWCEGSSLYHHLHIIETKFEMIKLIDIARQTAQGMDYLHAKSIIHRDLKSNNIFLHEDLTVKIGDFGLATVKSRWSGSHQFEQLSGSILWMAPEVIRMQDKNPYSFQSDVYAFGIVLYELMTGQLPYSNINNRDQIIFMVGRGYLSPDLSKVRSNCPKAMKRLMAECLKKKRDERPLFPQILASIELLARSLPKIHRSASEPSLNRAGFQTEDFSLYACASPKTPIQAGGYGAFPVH

Sequence of Mast/stem cell growth factor receptor Kit (P10721 whole entry): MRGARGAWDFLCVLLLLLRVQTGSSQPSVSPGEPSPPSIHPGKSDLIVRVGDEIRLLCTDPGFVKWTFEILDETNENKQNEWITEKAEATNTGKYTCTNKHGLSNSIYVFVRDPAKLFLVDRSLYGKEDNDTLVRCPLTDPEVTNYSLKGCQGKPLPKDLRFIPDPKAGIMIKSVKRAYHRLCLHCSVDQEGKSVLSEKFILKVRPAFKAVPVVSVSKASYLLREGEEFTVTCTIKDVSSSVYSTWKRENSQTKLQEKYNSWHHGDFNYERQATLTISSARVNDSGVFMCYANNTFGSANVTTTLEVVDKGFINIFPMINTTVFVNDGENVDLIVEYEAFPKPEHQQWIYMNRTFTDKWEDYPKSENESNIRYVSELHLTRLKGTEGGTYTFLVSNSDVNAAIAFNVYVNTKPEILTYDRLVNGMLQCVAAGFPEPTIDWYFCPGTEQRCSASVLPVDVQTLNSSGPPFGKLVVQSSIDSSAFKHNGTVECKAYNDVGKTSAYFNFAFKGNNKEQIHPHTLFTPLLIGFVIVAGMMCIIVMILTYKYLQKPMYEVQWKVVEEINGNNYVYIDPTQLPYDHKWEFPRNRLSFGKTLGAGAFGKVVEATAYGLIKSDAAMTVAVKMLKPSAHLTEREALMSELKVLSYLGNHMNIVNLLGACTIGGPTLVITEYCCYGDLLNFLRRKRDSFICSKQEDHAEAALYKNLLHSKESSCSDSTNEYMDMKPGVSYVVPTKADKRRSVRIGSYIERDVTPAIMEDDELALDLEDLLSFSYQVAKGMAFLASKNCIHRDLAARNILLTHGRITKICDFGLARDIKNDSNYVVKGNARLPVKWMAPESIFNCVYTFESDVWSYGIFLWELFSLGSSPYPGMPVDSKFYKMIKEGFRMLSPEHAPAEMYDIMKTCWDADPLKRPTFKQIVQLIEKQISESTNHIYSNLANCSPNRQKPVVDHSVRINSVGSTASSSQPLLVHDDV
Sequence of Tyrosine-protein kinase BTK (Q06187 whole entry): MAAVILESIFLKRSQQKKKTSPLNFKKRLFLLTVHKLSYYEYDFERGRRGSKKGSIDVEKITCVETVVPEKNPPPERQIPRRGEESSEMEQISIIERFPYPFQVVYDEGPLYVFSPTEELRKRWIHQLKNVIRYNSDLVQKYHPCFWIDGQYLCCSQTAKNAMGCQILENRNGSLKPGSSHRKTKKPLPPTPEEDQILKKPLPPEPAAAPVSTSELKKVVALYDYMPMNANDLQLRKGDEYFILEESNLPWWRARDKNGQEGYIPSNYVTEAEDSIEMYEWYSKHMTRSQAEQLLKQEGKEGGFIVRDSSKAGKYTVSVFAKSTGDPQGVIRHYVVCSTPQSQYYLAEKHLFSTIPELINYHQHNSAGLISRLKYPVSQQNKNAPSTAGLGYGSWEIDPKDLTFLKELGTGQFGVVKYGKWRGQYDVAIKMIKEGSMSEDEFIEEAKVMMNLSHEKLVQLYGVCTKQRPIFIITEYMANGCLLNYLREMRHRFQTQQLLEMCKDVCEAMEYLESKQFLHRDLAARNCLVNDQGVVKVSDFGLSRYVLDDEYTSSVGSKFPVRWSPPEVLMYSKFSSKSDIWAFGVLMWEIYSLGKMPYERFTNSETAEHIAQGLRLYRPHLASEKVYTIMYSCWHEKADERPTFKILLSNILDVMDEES
Sequence of Proto-oncogene tyrosine-protein kinase Src (P12931 2-536 limits assumed): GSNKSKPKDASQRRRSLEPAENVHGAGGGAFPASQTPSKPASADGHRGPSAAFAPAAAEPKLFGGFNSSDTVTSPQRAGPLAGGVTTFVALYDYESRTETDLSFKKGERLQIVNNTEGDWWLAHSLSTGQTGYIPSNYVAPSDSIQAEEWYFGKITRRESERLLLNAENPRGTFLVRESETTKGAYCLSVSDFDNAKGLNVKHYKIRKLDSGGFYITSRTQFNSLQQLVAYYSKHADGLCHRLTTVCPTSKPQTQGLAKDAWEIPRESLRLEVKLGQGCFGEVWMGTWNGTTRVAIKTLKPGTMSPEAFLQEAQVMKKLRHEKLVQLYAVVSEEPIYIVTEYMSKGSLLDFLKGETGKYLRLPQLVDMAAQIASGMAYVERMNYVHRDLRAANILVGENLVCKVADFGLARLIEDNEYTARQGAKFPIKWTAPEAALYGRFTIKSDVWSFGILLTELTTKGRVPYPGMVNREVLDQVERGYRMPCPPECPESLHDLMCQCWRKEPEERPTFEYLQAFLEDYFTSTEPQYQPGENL
Sequence of RAF proto-oncogene serine/threonine-protein kinase (P04049 whole entry): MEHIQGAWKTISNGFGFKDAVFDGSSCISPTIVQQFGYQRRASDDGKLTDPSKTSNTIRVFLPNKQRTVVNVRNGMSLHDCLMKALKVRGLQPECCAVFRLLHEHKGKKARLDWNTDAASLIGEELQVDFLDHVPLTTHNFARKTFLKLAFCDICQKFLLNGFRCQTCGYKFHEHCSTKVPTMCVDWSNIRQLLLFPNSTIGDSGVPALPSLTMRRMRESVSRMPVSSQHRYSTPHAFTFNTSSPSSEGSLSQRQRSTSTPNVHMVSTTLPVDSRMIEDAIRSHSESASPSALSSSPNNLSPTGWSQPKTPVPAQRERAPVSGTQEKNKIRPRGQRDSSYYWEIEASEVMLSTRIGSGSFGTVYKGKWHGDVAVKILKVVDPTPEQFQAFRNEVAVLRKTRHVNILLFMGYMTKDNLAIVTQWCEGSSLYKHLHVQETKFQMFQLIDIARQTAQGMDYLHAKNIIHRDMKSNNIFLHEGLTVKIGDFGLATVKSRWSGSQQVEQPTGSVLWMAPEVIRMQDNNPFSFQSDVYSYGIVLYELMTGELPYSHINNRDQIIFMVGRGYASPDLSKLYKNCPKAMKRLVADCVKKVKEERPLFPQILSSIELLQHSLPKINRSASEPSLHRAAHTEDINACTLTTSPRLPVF
Sequence of Vascular endothelial growth factor receptor 2 (P35968 whole entry): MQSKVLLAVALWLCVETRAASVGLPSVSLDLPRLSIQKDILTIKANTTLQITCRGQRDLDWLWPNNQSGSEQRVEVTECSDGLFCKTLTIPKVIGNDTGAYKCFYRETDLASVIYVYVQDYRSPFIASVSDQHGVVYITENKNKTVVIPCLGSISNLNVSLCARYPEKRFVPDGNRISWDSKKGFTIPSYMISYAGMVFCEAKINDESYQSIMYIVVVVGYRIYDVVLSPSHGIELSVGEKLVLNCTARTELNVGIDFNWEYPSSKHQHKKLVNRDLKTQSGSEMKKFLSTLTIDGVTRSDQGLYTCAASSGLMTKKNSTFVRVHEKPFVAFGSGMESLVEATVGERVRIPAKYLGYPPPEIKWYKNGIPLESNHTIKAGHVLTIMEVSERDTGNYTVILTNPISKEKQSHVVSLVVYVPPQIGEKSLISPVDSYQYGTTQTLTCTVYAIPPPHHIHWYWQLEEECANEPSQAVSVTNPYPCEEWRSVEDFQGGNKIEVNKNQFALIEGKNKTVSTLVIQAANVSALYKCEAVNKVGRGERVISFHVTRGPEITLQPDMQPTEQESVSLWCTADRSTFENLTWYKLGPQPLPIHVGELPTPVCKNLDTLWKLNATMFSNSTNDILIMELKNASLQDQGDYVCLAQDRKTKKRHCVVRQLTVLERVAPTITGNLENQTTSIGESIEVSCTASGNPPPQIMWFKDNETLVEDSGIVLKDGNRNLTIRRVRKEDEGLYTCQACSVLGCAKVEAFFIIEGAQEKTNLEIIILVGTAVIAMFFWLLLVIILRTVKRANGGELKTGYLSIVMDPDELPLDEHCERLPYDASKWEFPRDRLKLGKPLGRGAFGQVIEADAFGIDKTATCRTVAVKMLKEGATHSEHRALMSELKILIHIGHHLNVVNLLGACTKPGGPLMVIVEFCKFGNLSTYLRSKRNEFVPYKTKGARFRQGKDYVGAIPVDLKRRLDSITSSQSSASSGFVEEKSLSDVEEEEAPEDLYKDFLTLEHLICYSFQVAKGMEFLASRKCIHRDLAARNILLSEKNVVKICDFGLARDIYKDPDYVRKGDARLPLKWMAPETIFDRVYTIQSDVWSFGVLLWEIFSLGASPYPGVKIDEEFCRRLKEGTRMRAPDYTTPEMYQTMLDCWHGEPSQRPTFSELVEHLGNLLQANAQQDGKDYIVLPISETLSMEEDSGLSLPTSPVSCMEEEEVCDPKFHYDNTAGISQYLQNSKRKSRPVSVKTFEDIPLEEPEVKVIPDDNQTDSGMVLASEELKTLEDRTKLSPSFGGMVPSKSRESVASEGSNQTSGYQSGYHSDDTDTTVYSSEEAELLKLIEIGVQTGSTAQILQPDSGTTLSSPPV

pIC50 [1]: ≥ 5.00
pIC50 [2]: ≥ 5.00
pIC50 [3]: ≥ 5.00
pIC50 [4]: ≥ 5.00
pIC50 [5]: ≥ 5.00
pIC50 [6]: ≥ 5.00
SMILES: O=C(c1cccc(NS(=O)(=O)c2c(F)cccc2F)c1F)c1c[nH]c2ncncc12
